Measured values: patent publication US12544375B2, “Small molecule therapeutic for parkinson's disease paired with a biomarker of therapeutic activity” (The Board of Trustees of the Leland Stanford Junior …, priority 2019, dated 2026)

Target: T1, Miro1 (Homo sapiens, UniProt Q8IXI2)
T1 construct: We applied compound 3 to fibroblasts from one sporadic PD patient (PD-2); endogenous in cells; host or cells: human skin fibroblasts (PD-2, Healthy-1 and further PD/control lines)
Test: Miro1 response to CCCP in PD fibroblasts, Western blotting
Format: cell-based
Procedure: FIG. 2A-FIG. 2F. Miro1 Reducer Eliminates the Miro1 Defect in PD Fibroblasts. (FIG. 2A) Chemical properties of Miro1 Reducer. (FIG. 2B) Wild-type flies (w^1118) were fed with DMSO alone (0 μM Miro1 Reducer) or Miro1 Reducer in DMSO at 250 μM for 7 days, and lysed and blotted as indicated. The band intensities are normalized to those of Tubulin from the same blots. n=4. (FIG. 2C-FIG. 2E) Fibroblasts were treated, lysed, and blotted as indicated. (FIG. 2C) Band intensities are normalized to those of GAPDH from the same blots and compared to “Healthy-1, no treatment” except otherwise indicated. n=4. (FIG. 2D) Band intensities are normalized to those of ATP5β from the same blots and expressed as a percentage of the mean of “0 μM Miro1 Reducer with CCCP”. Mean±S.E.M is shown. n=3. (FIG. 2E) Band intensities are normalized to those of GAPDH from the same blots and compared to “Healthy-1, no CCCP, no MG132” except otherwise indicated. n=4. (FIG. 2F) Healthy-1 and PD-2 fibroblasts were transfected as indicated, and immunostained with anti-Myc (Miro1, green) and stained with Dapi (blue). The Miro1 intensity is normalized to that of mito-dsRed from the same cell and quantified across 37-62 cells from 5 fields each transfection, 3 independent transfections. Scale bars: 50 μm. For (FIG. 2C-FIG. 2F), both CCCP and Miro1 Reducer were dissolved in DMSO. Cells were pretreated with Miro1 Reducer 24 hrs before the application of CCCP for another 6 hrs. The same volume of DMSO was applied at the same time in negative controls.
FIG. 3A-FIG. 3D. Miro1 Reducer Rescues Parkinson's Neurodegeneration. (FIG. 3A) Fibroblasts were treated, lysed, and blotted as indicated. Band intensities are normalized to those of ATP5β from the same blots and compared to “Healthy-2, no treatment”. n=4. (FIG. 3B-FIG. 3C) iPSC-derived neurons were treated as indicated and immunostained with anti-TH (FIG. 3B) or stained with PI and Dapi (FIG. 3C). Both Antimycin A and Miro1 Reducer were dissolved in ethanol. Neurons were pretreated with Miro1 Reducer 24 hrs before the application of Antimycin A for another 6 hrs. The same volume of ethanol was applied at the same time in negative controls. (FIG. 3B) The density of TH-positive neurons is calculated in each condition under 20×, from 10 fields each experiment, 3-4 experiments. […] (FIG. 3C) The percentage of PI-positive cells out of total cells (Dapi-positive) is calculated. n=20 fields each experiment, 4 experiments. […] Graphs of Mean±S.E.M show the percent of time each mitochondrion is in motion (red and blue, compared to “Wild-type-I, before treatment”), and the mitochondrial intensity normalized to that of the same axonal region at “0 min” and expressed as a fraction of the mean of “Wild-type-I, 0 min”. n=33-77 mitochondria from 5-8 axons from 5-8 separate transfections. […]

T1 sequence (Q8IXI2 whole entry): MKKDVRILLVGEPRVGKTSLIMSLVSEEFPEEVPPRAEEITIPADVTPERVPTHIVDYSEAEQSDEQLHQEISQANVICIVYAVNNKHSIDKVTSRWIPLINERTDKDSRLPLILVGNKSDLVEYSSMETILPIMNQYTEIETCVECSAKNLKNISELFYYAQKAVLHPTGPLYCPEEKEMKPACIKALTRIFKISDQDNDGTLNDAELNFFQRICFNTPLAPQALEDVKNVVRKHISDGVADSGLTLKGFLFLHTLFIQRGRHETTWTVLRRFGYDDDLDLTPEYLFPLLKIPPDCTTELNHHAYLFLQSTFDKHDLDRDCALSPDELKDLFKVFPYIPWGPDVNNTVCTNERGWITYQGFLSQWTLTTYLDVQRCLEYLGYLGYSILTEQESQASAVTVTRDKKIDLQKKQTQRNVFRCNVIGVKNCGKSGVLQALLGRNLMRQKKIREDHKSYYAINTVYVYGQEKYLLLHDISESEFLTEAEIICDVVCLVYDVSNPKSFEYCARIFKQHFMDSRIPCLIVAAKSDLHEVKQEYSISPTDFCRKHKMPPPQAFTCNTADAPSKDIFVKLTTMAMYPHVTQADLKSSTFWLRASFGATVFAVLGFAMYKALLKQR

## O=C(Nc1ccc(Nc2cc(-n3ccnc3)ncn2)cc1)Nc1cccc(F)c1 [Miro1 Reducer]
PD-2 fibroblasts, 10 μM for 30 hrs, CCCP 6 hrs
  Miro1 degradation following CCCP treatment: robustly promoted Miro1 degradation
PD-2 fibroblasts, following CCCP treatment
  reduction of Miro1 protein in presence of proteasome inhibitor MG132: blocked by the proteasome inhibitor MG132
Additional 4 control and 4 sporadic PD fibroblast cell lines
  Miro1 degradation after depolarization in additional lines: same beneficial change of Miro1 degradation after depolarization
Fibroblasts pretreated 24 hrs, then CCCP 6 hrs, FIG. 2D, read-out: Miro1 protein levels, dose-dependent response (IC50)
  IC50: 7.8 µM
